The values that follow come from article PMC11637823, “Evaluating the Antimicrobial Efficacy of a Designed Synthetic Peptide against Pathogenic Bacteria” (Journal of Microbiology and Biotechnology, 2024).

The subject of data set [1] is A. baumannii biofilm (IC 003321216). The data set can be described thus: Mature biofilm eradication, MTT viability. Particulars: ciprofloxacin alone.
Data set [2] has as its system Pseudomonas aeruginosa ATCC 27853. The data set can be described thus: microbe, parasite or virus in culture. On the procedure:
(§1) Clinical and Laboratory Standards Institute (CLSI) guidelines performed the peptide MIC assays. Bacterial colonies were isolated on the Muller Hinton Agar (MHA) and plated at a final concentration of 1.5 × 10^5 CFU/ml.
(§2) For the results, bacterial growth was determined by visual inspection and confirmed by absorbance measurement at 595 nm after 24 h of incubation using a Multiskan GO microplate reader (Thermo Fisher Scientific, USA). […] The rest of the assay was conducted as previously described.
(§3) The MBC was determined based on the MIC results. Three replicates of 10 μl were extracted from the microplate wells, placed on MHA, and then kept in an incubator at 37°C for 24 h. […] All experiments were performed in triplicate.

Data set [3] relates to Staphylococcus aureus (MRSA) ATCC 43300. Description: microbe, parasite or virus in culture. As to the method: as §1, §2, §3
In data set [4] the test system is Escherichia coli KPC+ 001812446. The data set can be described thus: microbe, parasite or virus in culture. As to the method: as §1, §2, §3
The subject of data set [5] is Staphylococcus saprophyticus ATCC 29970. Description: microbe, parasite or virus in culture. As to the method:
as §1, §2, §3

For data set [6], the system named is Staphylococcus aureus (MRSA) ATCC 33591. Description: microbe, parasite or virus in culture. As to the method:
as §1, §2, §3

Another data set relates to Gram-negative bacteria. The data set can be described thus: MIC and MBC assays, span over strains. The data set is classed as cell-based. As to the method: as §1, §2, §3
The subject of the next data set is E. coli. On the set-up: method as in PMID 16352849. Particulars: cited from earlier work.
Data set [7] deals with RAW 264.7 murine macrophages. Particulars: 64 µM.
Description: Cellular viability. RAW 264.7 murine macrophages' cellular viability was evaluated in the presence of the RK8 peptide, according to the method proposed by Mosmann [18], using the enzymatic reduction of the reagent 3-(4,5-dimethylthiazol-2-yl bromide) -2,5-diphenyltetrazolium (MTT).
After detaching from the culture bottle, their density was determined, and they were seeded in a 96-well microplate at a density of 6 × 10^3 cells per well. After being placed in microplates, the cells were incubated for 24 h. The culture medium was replaced with a DMEM culture medium lacking SFB supplementation. Instead, it contained a serial dilution of RK8 ranging from 1 to 64 μM. After 24 h, the medium containing RK8 was removed and replaced with 100 μl of DMEM medium containing MTT 0.5 mg/ml. After four hours of incubation, the medium was removed again, and the reduced formazan crystals were resuspended with the addition of 100 μl of DMSO. Then, the absorbance of the wells was determined at 630 nm in a Varioskan microplate reader (Thermo Fisher Scientific). Three independent experiments were performed in triplicate. Cell viability was calculated from the following formula:
Cell viability (%) = (AbsSample÷AbsNegative control) × 100
Data set [8] concerns Acinetobacter baumannii ATCC 19906. Particulars: ATCC 19906, 24 h. On the procedure:
as §1, §2, §3

The subject of data set [9] is Acinetobacter baumannii IC 003321216. Particulars: IC 003321216, 24 h. On the procedure:
as §1, §2, §3

Data set [10] relates to Escherichia coli ATCC 35218. To be noted: ATCC 35218, 24 h. As to the method:
as §1, §2, §3

Data set [11] deals with Klebsiella pneumoniae ATCC 700603. Particulars: ATCC 700603, 24 h. On the procedure:
as §1, §2, §3

The next data set has as its system human erythrocytes. Format: cell-based. To be noted: 100 µM. As to the method:
Hemolytic activity. As hemolysis is an effect widely observed among antimicrobial peptides, we investigated the RK8 peptide hemolytic activity based on the protocol proposed by Uggerhøj et al. using erythrocytes. The blood sample (1 ml) was washed three times with 3 ml of saline solution through centrifugation cycles of 8 min at 1,380 ×g to secure a concentrated solution of erythrocytes. […] The samples were incubated for 60 min at 37°C and sequentially centrifuged for 10 min at 2,455 ×g. Subsequently, 100 μl of the supernatant was transferred to 96-well microplate wells in triplicate. The free haemoglobin content was determined at 414 nm on a Multiskan GO microplate reader (Thermo Fisher Scientific).

In data set [12] the test system is E. coli, P. aeruginosa, and A. baumanii. Particulars: 24 h.
The nature of a further data set: in vitro. On the procedure: The mixture was maintained at 30°C. Aliquots of 150 μl were collected after 0, 15, 30, 45, 60, and 120 min, mixed with ten μl of Trifluoroacetic Acid (TFA) and centrifuged at 14 000 rpm at 4°C for 10 min [19]. High-Performance Liquid Chromatography (HPLC) monitored the stability of the peptide using the C-18 reversed-phase hydrophobic column (μ Bondapak C18, 3.9 × 300 mm, Waters, USA) at 25°C. The peptide's remaining percentage during degradation kinetics was calculated by integrating the peak area corresponding to the RK8 peptide, injecting 40 μl of the incubation product in triplicate. The assay was conducted in an Ultimate 3000 chromatograph (Thermo Fisher Scientific). A separation program of 60 min at 1 ml/min was implemented, with monitoring of the 220 and 280 nm wavelengths. Thermo Scientific's ChromeleonTM Chromatography Data System (CDS) 7 software determined the area under the curve.

The next data set has as its system ESKAPE pathogens. To be noted: at one-third of the MIC; cited from earlier work. An excerpt: A. baumannii, known for colonising medical equipment surfaces like urinary catheters to form a biofilm, contributes to recurrent and persistent patient infections. WLBU-2, a synthetic cationic peptide, and LL-37, a naturally occurring antimicrobial peptide, underwent testing for efficacy against a range ...

Setting [13] is: Staphylococcus saprophyticus, ATCC29970, 24 h.

≈ marks a conversion by molar mass, not a printed value. Ends that are not written are not given here. Some results are limits rather than exact numbers.

As to `O=C(O)c1cn(C2CC2)c2cc(N3CCNCC3)c(F)cc2c1=O` [Ciprofloxacin, ciprofloxacin], the impact on biofilm result in [1] is recorded as “no impact”.
As for `CN[C@H](CC(C)C)C(=O)N[C@H]1C(=O)N[C@@H](CC(N)=O)C(=O)N[C@H]2C(=O)N[C@H]3C(=O)N[C@H](C(=O)N[C@H](C(=O)O)c4cc(O)cc(O)c4-c4cc3ccc4O)[C@H](O)c3ccc(c(Cl)c3)Oc3cc2cc(c3O[C@@H]2O[C@H](CO)[C@@H](O)[C@H](O)[C@H]2O[C@H]2C[C@](C)(N)[C@H](O)[C@H](C)O2)Oc2ccc(cc2Cl)[C@H]1O` [Vancomycin, vancomycin, reference compound], the MBC was 1 µM (≈ 1.45 µg/mL) in data set [2] (Pseudomonas aeruginosa, ATCC27853, 24 h); 1 µM (≈ 1.45 µg/mL) in [3] (Staphylococcus aureus, ATCC43300|MRSA, 24 h, 10 μl from MIC wells on MHA, 37°C, triplicate); 0.5 µM (≈ 0.725 µg/mL) in data set [4] (Escherichia coli, 24 h); “one” in [5] (10 μl from MIC wells on MHA, 37°C, 24 h, triplicate); 1 µM (≈ 1.45 µg/mL) in data set [5] (setting [13]); 1 µM (≈ 1.45 µg/mL) in data set [6] (Staphylococcus aureus, 24 h). In addition, the MBC in the data set on Gram-negative bacteria (read-out: MBC values) is 0.5 to 4 µM (≈ 0.725 to 5.8 µg/mL). Besides, the MIC in [4] (Escherichia coli, 24 h) was 0.5 µM (≈ 0.725 µg/mL); in data set [5] (setting [13]), 0.5 µM (≈ 0.725 µg/mL); in the data set on Gram-negative bacteria (span over Gram-negative strains, 1.5 × 10^5 CFU per ml), 0.5 to 8 µM (≈ 0.725 to 11.6 µg/mL).
Regarding Indolicidin, the MIC in the data set with E. coli is 10 µM.
As to RKWRKWWK [RK8], the cell viability (as a rule, a read-out of living cells in per cent, often relative to untreated cells) in [7] is on record as 90.1%. For the same molecule, the MBC in data set [8] worked out at 4 µM; in data set [9], 4 µM; in [10] it was 2 µM; in data set [11], 64 µM; in [2] (ATCC 27853, 24 h), 64 µM; in data set [3] (ATCC 43300, 24 h), 8 µM. For the same molecule, the MBC is 8 µM in data set [4] (KPC+ 001812446, 24 h); 64 µM in data set [5] (ATCC 29970, 24 h); 8 µM in [6] (ATCC 33591, 24 h). The MIC in data set [8] was greater than 64 µM; in data set [9] it was 64 µM; in [10], greater than 64 µM; in data set [11], greater than 64 µM; in data set [3] (ATCC 43300, 24 h), 16 µM; in data set [4] (KPC+ 001812446, 24 h) it was 16 µM. The MIC in data set [5] (ATCC 29970, 24 h) is greater than 64 µM; in data set [6] (ATCC 33591, 24 h) it was 8 µM. In addition, in the data set with human erythrocytes, the hemolysis entry is “approximately 4.6%”. The “concentrations with bactericidal effect (consistent MIC and MBC values)” value in data set [12] fell in the range of 0.5 to 4 µM. Besides, the “decrease in the overall area” value in “in vitro” (25% FBS in ultrapure water, 30°C, 120 min, RP-HPLC C18 peak area, triplicate) turned out to be 40%. Further, the “area under the RK8 peak (intact peptide)” value in “in vitro” (25% FBS in ultrapure water, 30°C, first 45 min, RP-HPLC C18 peak area, triplicate) is “unaffected”. The metabolised at 1 h, 0.385 mg/ml in the data set “in vitro” (25% fetal bovine serum (FBS)) worked out at 12.2%. For the same molecule, the share remaining – broadly, the share of the starting amount still present when the sample was taken – at 2 h, 0.385 mg/ml in the data set “in vitro” (25% fetal bovine serum (FBS)) is roughly 60%.
As for LL-37, the “inhibition of biofilm formation” value in the data set with ESKAPE pathogens is recorded as 90%.
